In ChEMBL document CHEMBL6092203, “Discovery of Novel PROTAC-Based HPK1 Degraders with High Potency and Selectivity for Cancer Immunotherapy” (J Med Chem, 2024):
Activity calls are given as the source filed them. The rule behind the calls is not given here.

Columns and labels:
[1] = Toxicity in Sprague-Dawley rat assessed as no observable adverse effect level exposure measured after 14 days; settings: in vivo, 336 h, time 14 day
[2] = Toxicity in Sprague-Dawley rat assessed as efficacy dose measured after 14 days; settings: in vivo, 336 h, time 14 day
MC-38 [3] = assay: Synergistic antitumor activity against mouse MC38 cells implanted in C57BL/6J mouse assessed as tumor growth inhibition at 1 mg/kg, po bid measured after 4 weeks in presence of 5 mg/kg anti-PD1 and measured twice a week; format: functional; settings: MC-38, 672 h, read-out: TGI
[4] = Clearance in Sprague-Dawley rat at 2 mg/kg, iv measured upto 24 hrs by LC-MS analysis; settings: in vivo
[5] = biological target: T1, Protein cereblon/Mitogen-activated protein kinase kinase kinase kinase 1 (Homo sapiens, UniProt Q92918+Q96SW2); assay: PROTAC activity at CRBN/HPK1 in human Jurkat cells assessed as HPK1 degradation at 0.01 uM measured after 24 hrs by Western blotting analysis; format: cell-based
T1 sequence (Q92918 whole entry, looked up): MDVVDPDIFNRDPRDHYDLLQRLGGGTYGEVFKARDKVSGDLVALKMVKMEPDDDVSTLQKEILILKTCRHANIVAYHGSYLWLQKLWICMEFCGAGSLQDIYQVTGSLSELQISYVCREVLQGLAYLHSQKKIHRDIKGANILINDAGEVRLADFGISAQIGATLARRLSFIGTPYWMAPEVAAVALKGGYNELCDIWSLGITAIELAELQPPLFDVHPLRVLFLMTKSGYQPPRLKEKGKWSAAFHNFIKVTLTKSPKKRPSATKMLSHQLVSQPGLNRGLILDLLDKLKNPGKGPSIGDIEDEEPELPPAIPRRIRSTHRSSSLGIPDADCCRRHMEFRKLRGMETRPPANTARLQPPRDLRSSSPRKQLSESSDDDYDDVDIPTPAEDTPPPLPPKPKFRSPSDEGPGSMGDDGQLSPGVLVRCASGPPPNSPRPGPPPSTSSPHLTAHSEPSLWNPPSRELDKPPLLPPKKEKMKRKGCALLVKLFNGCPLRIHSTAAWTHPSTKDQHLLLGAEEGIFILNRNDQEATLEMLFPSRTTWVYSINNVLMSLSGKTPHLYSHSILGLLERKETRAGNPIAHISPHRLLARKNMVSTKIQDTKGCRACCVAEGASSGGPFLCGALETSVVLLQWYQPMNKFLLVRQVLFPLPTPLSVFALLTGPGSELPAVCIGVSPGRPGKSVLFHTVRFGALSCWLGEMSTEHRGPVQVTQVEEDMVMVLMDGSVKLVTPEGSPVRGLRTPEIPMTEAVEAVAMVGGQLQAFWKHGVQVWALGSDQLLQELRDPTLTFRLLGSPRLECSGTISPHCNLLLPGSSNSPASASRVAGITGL
T1 sequence (Q96SW2 whole entry, looked up): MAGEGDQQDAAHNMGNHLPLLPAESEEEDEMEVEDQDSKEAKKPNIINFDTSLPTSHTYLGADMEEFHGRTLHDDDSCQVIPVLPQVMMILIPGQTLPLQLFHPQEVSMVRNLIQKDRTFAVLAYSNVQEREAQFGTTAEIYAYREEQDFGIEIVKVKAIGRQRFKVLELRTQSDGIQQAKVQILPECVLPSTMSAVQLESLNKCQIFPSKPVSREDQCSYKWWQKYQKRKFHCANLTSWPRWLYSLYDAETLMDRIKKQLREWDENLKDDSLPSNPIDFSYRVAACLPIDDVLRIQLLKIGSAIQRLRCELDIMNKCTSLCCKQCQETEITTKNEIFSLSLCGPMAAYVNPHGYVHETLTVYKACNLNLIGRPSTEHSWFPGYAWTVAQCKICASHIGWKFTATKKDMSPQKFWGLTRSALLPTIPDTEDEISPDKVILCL

[6] = Volume of distribution at steady state in C57BL/6J mouse at 2 mg/kg, iv measured upto 24 hrs by LC-MS analysis; format: ADME, organism-based; settings: in vivo, read-out: Vdss
[7] = Drug metabolism in monkey hepatocytes assessed as phase 1 metabolites formation at 10 uM incubated for 120 mins by UHPLC-UV/MS/MS method; format: ADME, cell-based, Macaca mulatta, Hepatocyte; settings: rhesus monkey, 2 h
MC-38 [8] = assay: Synergistic antitumor activity against mouse MC38 cells implanted in C57BL/6J mouse assessed as reduction in tumor volume at 1 mg/kg, po bid administered for 3 to 4 weeks in presence of 5 mg/kg anti-PD1 and measured twice a week (reference value: 1549.22 +/- 217.92 mm3); format: functional; settings: time 3-4 weeks
[9] = AUCinfinity in Sprague-Dawley rat at 1 mg/kg, po measured upto 24 hrs by LC-MS analysis; format: ADME, organism-based; settings: in vivo
[10] = AUCinfinity in Beagle dog at 5 mg/kg, po measured upto 24 hrs by LC-MS analysis; format: ADME, organism-based, Canis lupus familiaris; settings: in vivo
[11] = Clearance in rat relative to hepatic blood flow; settings: in vivo
[12] = Drug metabolism in rat hepatocytes assessed as phase 1 metabolites formation at 10 uM incubated for 120 mins by UHPLC-UV/MS/MS method; format: ADME, cell-based, Hepatocyte; settings: 2 h
[13] = Induction of INFgamma secretion in human T-cells incubated for 48 hrs by ELISA; format: functional, cell-based; settings: T-cell
MC-38 [14] = assay: Antitumor activity against mouse MC38 cells implanted in C57BL/6J mouse assessed as tumor growth inhibition at 100 mg/kg, po QD administered for 4 weeks; format: functional; settings: MC-38, 672 h, read-out: TGI
[15] = biological target: T1, Protein cereblon/Mitogen-activated protein kinase kinase kinase kinase 1; assay: PROTAC activity at CRBN/HPK1 in human Jurkat cells assessed as HPK1 degradation at 1 uM by Western blotting analysis; format: cell-based; settings: time 4-72 hrs
[16] = Plasma protein binding in rat at 10 uM incubated for 6 hrs by equilibrium dialysis based LC-MS/MS method; format: ADME, cell-free; settings: read-out: PPB (converted)
[17] = Drug metabolism in rat hepatocytes assessed as phase 2 metabolites formation at 10 uM incubated for 120 mins by UHPLC-UV/MS/MS method; format: ADME, cell-based, Hepatocyte; settings: 2 h
MC-38 [18] = assay: Antitumor activity against mouse MC38 cells implanted in C57BL/6J mouse assessed as reduction in tumor volume at 0.1 mg/kg, po BID administered for 3 to 4 weeks (reference value: 1549.22 +/- 217.92 mm3); format: functional; settings: time 3-4 weeks
Cytochrome P450 1A2 = biological target: T2, Cytochrome P450 1A2 (Homo sapiens, UniProt P05177); assay: Inhibition of CYP1A2 in human liver microsomes using phenacetin as substrate in presence of NADPH; format: ADME, Microsome
T2 sequence (P05177 whole entry): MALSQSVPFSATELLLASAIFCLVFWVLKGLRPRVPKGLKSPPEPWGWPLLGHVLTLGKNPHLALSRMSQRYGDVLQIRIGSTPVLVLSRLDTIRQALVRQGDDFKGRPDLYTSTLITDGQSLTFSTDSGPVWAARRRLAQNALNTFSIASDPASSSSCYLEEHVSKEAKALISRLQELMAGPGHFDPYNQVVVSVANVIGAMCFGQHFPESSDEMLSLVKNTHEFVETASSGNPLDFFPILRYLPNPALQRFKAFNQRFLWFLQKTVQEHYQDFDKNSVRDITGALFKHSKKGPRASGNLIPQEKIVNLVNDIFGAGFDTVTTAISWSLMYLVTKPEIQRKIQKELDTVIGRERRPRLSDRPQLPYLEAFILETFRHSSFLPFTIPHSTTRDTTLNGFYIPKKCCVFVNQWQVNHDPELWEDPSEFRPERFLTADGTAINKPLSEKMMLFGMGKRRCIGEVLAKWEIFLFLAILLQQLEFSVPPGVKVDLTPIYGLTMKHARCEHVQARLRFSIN

MC-38 [19] = assay: Synergistic antitumor activity against mouse MC38 cells implanted in C57BL/6J mouse assessed as tumor growth inhibition at 0.1 mg/kg, po bid measured after 4 weeks in presence of 5 mg/kg anti-PD1 and measured twice a week; format: functional; settings: MC-38, 672 h, read-out: TGI
[20] = Initial plasma concentration in C57BL/6J mouse at 2 mg/kg, iv measured upto 24 hrs by LC-MS analysis; format: ADME, organism-based
[21] = Metabolic stability in rat liver microsomes assessed as intrinsic clearance at 1 uM incubated for 45 mins by LC-MS/MS method; format: ADME, Microsome; settings: read-out: CLH
[22] = Tmax in male Sprague-Dawley rat at 2 mg/kg/day, po measured at day 14; format: ADME, organism-based; settings: in vivo, time 14 day
[23] = Half-life in Sprague-Dawley rat at 2 mg/kg, iv measured upto 24 hrs by LC-MS analysis; settings: in vivo
MC-38 [24] = assay: Antitumor activity against mouse MC38 cells implanted in C57BL/6J mouse assessed as reduction in tumor volume at 0.5 mg/kg, po BID administered for 3 to 4 weeks (reference value: 1549.22 +/- 217.92 mm3); format: functional; settings: time 3-4 weeks
[25] = Drug distribution in rat heart measured after 0.5 to 6 hrs; format: ADME, tissue-based; settings: in vivo, time 0.5-6 hrs
MC-38 [26] = assay: Antitumor activity against mouse MC38 cells implanted in C57BL/6J mouse assessed as tumor weight inhibition rate at 0.1 mg/kg, po BID measured after 4 weeks; format: functional; parameters: scale not given: the % may be the effect or the level left
MC-38 [27] = assay: Antitumor activity against mouse MC38 cells implanted in C57BL/6J mouse assessed as reduction in tumor weight at 1 mg/kg, po BID administered for 3 to 4 weeks (reference value: 1.79 +/- 0.24 g); format: functional; settings: time 3-4 weeks
[28] = AUC(0 to 24 hrs) in female Sprague-Dawley rat at 2 mg/kg/day, po measured at day 1; format: ADME, organism-based; settings: in vivo, time 1 day
MC-38 [29] = assay: Antitumor activity against mouse MC38 cells implanted in C57BL/6J mouse assessed as tumor weight inhibition rate at 1 mg/kg, po BID measured after 4 weeks; format: functional; parameters: scale not given: the % may be the effect or the level left
[30] = biological target: T1, Protein cereblon/Mitogen-activated protein kinase kinase kinase kinase 1; assay: PROTAC activity at CRBN/HPK1 in human Jurkat cells assessed as HPK1 degradation at 0.01 uM pretreated with MG132 for 4 hrs followed by compound addition and measured after 24 hrs by Western blotting analysis; format: cell-based
[31] = Plasma protein binding in human at 10 uM incubated for 6 hrs by equilibrium dialysis based LC-MS/MS method; format: ADME, cell-free; settings: read-out: PPB
in vivo = settings: beagle, dog, po, 5 mg/kg
Description: Cmax in Beagle dog at 5 mg/kg, po measured upto 24 hrs by LC-MS analysis

clearance at 24 h [4]: 4.17 mL/min/kg
Activity [5]: Active
Vd [6]: 0.659 L/kg
Drug metabolism [7]: metabolite_detected
AUC(0-inf) [9]: 894 ng·h/mL
AUC(0-inf) [10]: 796 ng·h/mL
clearance [11]: 16.6 mL/min/kg
Drug metabolism [12]: metabolite_detected
EC50 [13]: 32.6 nM
Activity [15]: Time-dependent-effect
fraction unbound at 6 h, 10 µM [16]: 0.0008
Drug metabolism [17]: metabolite_detected
IC50 (Cytochrome P450 1A2): > 10000 nM
C0 at 24 h [20]: 1590 ng/mL
microsomal CLint at 1 µM [21]: 5.62 µL/min/mg
Tmax [22]: 10 h
half-life at 24 h [23]: 2.86 h
Drug uptake [25]: Active
AUC(0-t) at 24 h [28]: 539 ng·h/mL
Activity [30]: inactive
fraction unbound at 6 h, 10 µM [31]: 0.001
Cmax at 24 h (in vivo): 111 ng/mL
Structure (SMILES): O=C1CCN(c2cc(C(=O)N3CCC(CC4CCN(c5ccc(-c6cnc7[nH]cc(-c8cnn(CC(F)(F)F)c8)c7n6)cn5)CC4)CC3)ccc2Cl)C(=O)N1
NOAEL [1]: 136000 ng·h/mL
Activity [2]: 0.8 mg/kg/day
inhibition in vivo at 1 mg/kg (MC-38 [3]): 78.2%
Activity (MC-38 [8]): 338.13 mm3
inhibition in vivo at 100 mg/kg (MC-38 [14]): 56.9%
Activity (MC-38 [18]): 1107.91 mm3
inhibition in vivo at 0.1 mg/kg (MC-38 [19]): 39.7%
Activity (MC-38 [24]): 752.98 mm3
Activity (MC-38 [26]): 21.84%
Activity (MC-38 [27]): 1.56 g
Activity (MC-38 [29]): 12.77%
